Where two headings read alike, the source gives them in different places.
Experiments:
[1] = tested on: HT29 cells; assay: Antiproliferation assay - oxygen dependence; assay type: cell-based; details: Homo sapiens
Source text: (§1) . […] The calculated IC50 values (μM) are tabulated in Table Y1 (H460 cells) or Table Y2 (HT29 cells) below.

[2] = Plasma stability (Table 2B)
[3] = tested on: H460 cell line; assay: Anti-proliferation assay, hypoxia vs normoxia (Table 1A); details: for IC50: Homo sapiens; for HCR P: ratio of IC50 in normoxia and hypoxia
[4] = tested on: HCT116; assay: Anti-proliferation assay, hypoxia vs normoxia (Table 1B); details: for IC50: Homo sapiens
[5] = tested on: MES-SA/Dx5 cells; assay: Antiproliferation assay (Alamar Blue), anoxia vs air; details: Homo sapiens, MES-SA/Dx5, 2 h
[6] = tested on: UV135 cells (XPG); assay: Antiproliferation assay - DNA mutant repair cells; details: Cricetulus griseus, 2 h
[7] = tested on: NCI-H460 cells; assay: Antiproliferation assay (Alamar Blue), anoxia vs air; details: Homo sapiens, NCI-H460, 2 h
[8] = tested on: IRS1SF cells (XRCC3); assay: Antiproliferation assay - DNA mutant repair cells; details: Cricetulus griseus, 2 h
[9] = tested on: DX-5; assay: Anti-proliferation assay, hypoxia vs normoxia (Table 1B)
[10] = tested on: EM9 cells (XRCC1); assay: Antiproliferation assay - DNA mutant repair cells; details: Cricetulus griseus, 2 h
[11] = tested on: HT29; assay: Anti-proliferation assay, hypoxia vs normoxia (Table 1B); details: for IC50: Homo sapiens
[12] = tested on: H460 lung carcinoma spheroids; assay: Spheroid model, clonogenic survival; details: Homo sapiens, NCI-H460, 2 h, read-out: IC90 H460 Spheroid 10% O2
[13] = tested on: NCI H460 xenograft; assay: H460 xenograft mouse model with CDDP (Example 51); assay type: in vivo; details: 50 mg/kg daily or 100 mg/kg every three days, saline formulation
Procedure: Female CB17/SCID mice (purchased from Charles River, Cambridge, Mass.), 7-8 weeks of age, were allowed to acclimatize for at least three days, and handled under pathogen-free conditions. Human non-small cell lung carcinoma cell line NCI H460 was obtained from the American Type Culture Collection. The cell lines were cultured and harvested as described in Example 47 above, and inoculated at 3×10^6 cells/animal in the peritoneal subcutaneous space. When the tumors grew to an average volume of 100 mm^3, treatment was initiated in which groups of 10 mice received vehicle (Group 1), CDDP at 3 or 6 mg/kg (Groups 2 and 3, respectively, IV one time), Compound 25 at 50 mg/kg in saline 5 times per week for two weeks (Group 4), Compound 25 at 100 mg/kg every three days for 5 times (Group 5) or the combination of each dose of Compound 25 with either 3 or 6 mg/kg of CDDP (Groups 6 and 7, respectively). Results for groups receiving 50 mg/kg of Compound 25 are illustrated in the FIG. 1.

[14] = tested on: NCI-H460 cells; assay: Antiproliferation assay - oxygen dependence; assay type: cell-based, human; details: Homo sapiens
Source text: as §1

[15] = in vivo; details: for half-life: t ½, mice
[16] = assay type: physicochemical; details: glassy carbon, Ag/AgCl reference; for Reduction Potentials, 100 mV/sec: scan rate 100 mV/sec; for Reduction Potentials, 10,000 mV/sec: scan rate 10,000 mV/sec
[17] = tested on: H460 cells exposed as monolayers; assay: Clonogenic survival of monolayer cells (Example 35); details: Homo sapiens, NCI-H460, 2 h
[18] = tested on: MES-SA cells; assay: Antiproliferation assay (Alamar Blue), anoxia vs air; details: Homo sapiens, 2 h
[19] = tested on: AA8 cells (wild type); assay: Antiproliferation assay - DNA mutant repair cells; details: Cricetulus griseus, CHO-AA8, 2 h
[20] = tested on: UV41 cells (XPF); assay: Antiproliferation assay - DNA mutant repair cells; details: Cricetulus griseus, 2 h
[21] = tested on: HT29 cells; assay: Antiproliferation assay (Alamar Blue), anoxia vs air; details: Homo sapiens, HT-29, 2 h
[22] = NCI-H460, read-out: Hypoxia P (proliferation IC50)
[23] = NCI-H460, read-out: Normoxia P (proliferation IC50)
[24] = HCT-116, read-out: HCT116 P H (proliferation IC50, hypoxia)
[25] = HCT-116, read-out: HCT116 P N (proliferation IC50, normoxic)
[26] = read-out: IC50 MES-SA/Dx5 Anoxia
[27] = read-out: IC50 H460 Air, air, 2 h exposure
[28] = read-out: IC50 H460 Anoxia, anoxia, 2 h exposure
[29] = read-out: DX-5 P H (proliferation IC50, hypoxia)
[30] = read-out: DX-5 P N (proliferation IC50, normoxic)
[31] = HT-29, read-out: HT29 P H (proliferation IC50, hypoxia)
[32] = HT-29, read-out: HT29 P N (proliferation IC50, normoxic)
[33] = NCI-H460, read-out: IC50 in H460 cells, 0.1% O2
[34] = NCI-H460, read-out: IC50 in H460 cells, 0.6% O2
[35] = NCI-H460, read-out: IC50 in H460 cells, 1% O2
[36] = NCI-H460, read-out: IC50 in H460 cells, 10% O2
[37] = NCI-H460, read-out: IC50 in H460 cells, Air
[38] = NCI-H460, read-out: IC50 in H460 cells, N2
[39] = CD-1, Balb/c for Compound 1, mouse, ip
[40] = CD-1, Balb/c for Compound 1, mouse, iv
[41] = CD-1, Balb/c for Compound 1, mouse, iv, intravenous administration in mice
[42] = mouse, ip, intraperitoneal administration in mice
[43] = read-out: IC90 H460 Monolayer Air
[44] = read-out: IC90 H460 Monolayer N2

Structure (SMILES): Cn1c(COP(=O)(NCCBr)NCCBr)cnc1[N+](=O)[O-] [Compound 25]
- IC50 ([1]; HT-29, read-out: IC50 in HT29 cells, 0.6% O2): 25 µM
- IC50 ([1]; HT-29, read-out: IC50 in HT29 cells, Air): > 100 µM
- IC50 ([1]; HT-29, read-out: IC50 in HT29 cells, N2): 2 µM
- Plasma stability (at 20 min) ([2]; at 20 min): 102%
- IC50 [3, 22]: 0.05 µM
- IC50 ([3]; NCI-H460, read-out: IC50 in cells under hypoxia): 0.05 µM
- IC50 [3, 23]: 50 µM
- fold more toxic in hypoxic cells than in normoxic cells ([3]; anti-proliferation cytotoxicity assay): 1000 fold
- HCR P [3]: 1000
- HCT116 HCR [4]: >100
- IC50 [4, 24]: 0.9 µM
- IC50 [4, 25]: > 100 µM
- IC50 ([5]; read-out: IC50 MES-SA/Dx5 Air): > 100 µM
- IC50 [5, 26]: 0.3 µM
- IC50 ([6]; read-out: IC50 UV135 Air): > 100 µM
- IC50 ([6]; read-out: IC50 UV135 Anoxia): 6 µM
- IC50 [7, 27]: 86 µM
- IC50 [7, 28]: 0.15 µM
- IC50 ([8]; read-out: IC50 IRS1SF Air): > 100 µM
- IC50 ([8]; read-out: IC50 IRS1SF Anoxia): 2 µM
- DX-5 HCR [9]: >100
- IC50 [9, 29]: 1 µM
- IC50 [9, 30]: > 100 µM
- IC50 ([10]; read-out: IC50 EM9 Air): > 100 µM
- IC50 ([10]; read-out: IC50 EM9 Anoxia): 7 µM
- HT29 HCR P [11]: >6
- IC50 [11, 31]: 16 µM
- IC50 [11, 32]: > 100 µM
- IC90 [12]: 15 µM
- tumor volume and tumor growth delay [13]: significant dose related decrease in tumor volume and increase in tumor growth delay
- IC50 [14, 33]: 1 µM
- IC50 ([14]; NCI-H460, read-out: IC50 in H460 cells, 0.3% O2): 3 µM
- IC50 [14, 34]: 5 µM
- IC50 [14, 35]: 10 µM
- IC50 [14, 36]: 25 µM
- IC50 [14, 37]: 55 µM
- IC50 [14, 38]: 0.1 µM
- Cmax [15, 39]: 22900 ng/mL
- Cmax [15, 40]: 27500 ng/mL
- half-life [15, 41]: 6.6 min
- half-life ([15]; mouse, ip, intraperitoneal administration in mice (min)): 11 min
- half-life [15, 42]: 10.8 min
- half-life ([15]; mouse, iv, intravenous administration in mice (min)): 6.7 min
- Reduction Potentials, 100 mV/sec [16]: −594 mV
- Reduction Potentials, 10,000 mV/sec [16]: −626 mV
- IC90 ([17]; read-out: IC90 H460 Monolayer 0.6% O2): 0.6 µM
- IC90 [17, 43]: 20 µM
- IC90 [17, 44]: 0.1 µM
- IC50 ([18]; read-out: IC50 MES-SA Air): > 100 µM
- IC50 ([18]; read-out: IC50 MES-SA Anoxia): 0.9 µM
- IC50 ([19]; read-out: IC50 AA8 Air): > 100 µM
- IC50 ([19]; read-out: IC50 AA8 Anoxia): 8 µM
- IC50 ([20]; read-out: IC50 UV41 Air): 95 µM
- IC50 ([20]; read-out: IC50 UV41 Anoxia): 0.2 µM
- IC50 ([21]; read-out: IC50 HT29 Air): > 100 µM
- IC50 ([21]; read-out: IC50 HT29 Anoxia): 16 µM

Structure (SMILES): Cn1c(COP(=O)(NCCCl)NCCCl)cnc1[N+](=O)[O-] [Compound 36]
- Plasma stability (% at 30 min) ([2]; 30 min): 60%
- IC50 [3, 22]: 0.88 µM
- IC50 [3, 23]: > 100 µM
- HCR P [3]: >110
- HCT116 HCR [4]: >20
- IC50 [4, 24]: 5 µM
- IC50 [4, 25]: > 100 µM
- IC50 ([5]; read-out: IC50 MES-SA/Dx5 Air): > 100 µM
- IC50 [5, 26]: 7.5 µM
- IC50 ([6]; read-out: IC50 UV135 Air): > 100 µM
- IC50 ([6]; read-out: IC50 UV135 Anoxia): 2 µM
- IC50 [7, 27]: > 100 µM
- IC50 [7, 28]: 0.88 µM
- IC50 ([8]; read-out: IC50 IRS1SF Air): 59 µM
- IC50 ([8]; read-out: IC50 IRS1SF Anoxia): 0.3 µM
- DX-5 HCR [9]: >13
- IC50 [9, 29]: 7.5 µM
- IC50 [9, 30]: > 100 µM
- IC50 ([10]; read-out: IC50 EM9 Air): > 100 µM
- IC50 ([10]; read-out: IC50 EM9 Anoxia): 4 µM
- HT29 HCR P [11]: >2
- IC50 [11, 31]: 55 µM
- IC50 ([11]; HT-29, read-out: HT29 P H, value in parentheses): 35 µM
- IC50 [11, 32]: > 100 µM
- IC90 [12]: > 100 µM
- IC50 [14, 33]: 30 µM
- IC50 [14, 34]: 60 µM
- IC50 [14, 35]: 60 µM
- IC50 [14, 36]: > 100 µM
- IC50 [14, 37]: > 100 µM
- IC50 [14, 38]: 1 µM
- clearance ([15]; CD-1 (Compounds 5, 23, 36), Balb/c (Compound 1), mouse, iv): 77.4 mL/min/kg
- Cmax [15, 39]: 44000 ng/mL
- AUC [15, 40]: 10800 ng·h/mL
- Cmax [15, 40]: 27700 ng/mL
- Vd [15, 40]: 1.27 L/kg
- half-life [15, 41]: 14.4 min
- AUC ([15]; CD-1, mouse, ip): 26100 ng·h/mL
- half-life [15, 42]: 10.8 min
- Reduction Potentials, 100 mV/sec [16]: −609 mV
- Reduction Potentials, 10,000 mV/sec [16]: −634 mV
- IC90 [17, 43]: 100 µM
- IC90 [17, 44]: 1 µM
- IC50 ([18]; read-out: IC50 MES-SA Air): > 100 µM
- IC50 ([18]; read-out: IC50 MES-SA Anoxia): 5 µM
- IC50 ([19]; read-out: IC50 AA8 Air): > 100 µM
- IC50 ([19]; read-out: IC50 AA8 Anoxia): 2 µM
- IC50 ([20]; read-out: IC50 UV41 Air): 20 µM
- IC50 ([20]; read-out: IC50 UV41 Anoxia): 0.03 µM
- IC50 ([21]; read-out: IC50 HT29 Air): > 100 µM
- IC50 ([21]; read-out: IC50 HT29 Anoxia): 55 µM
